According to patent US20020120098A1, “Enhanced stimulation of erythropoiesis” (priority 1996, published 2002):

Tested on: CFU-E
Experiment: Colony formation assay, adult peripheral blood LDMNC: CFU-E
Assay type: cell-based, human
Conditions: for fold increase in CFU-E, adult blood, 0.2 U/ml Epo: ~20% O2, compared to untreated controls (no addition) at 0.2 U/ml Epo; for increase in number of CFU-E progenitors, adult blood, ambient O2 (in words): 2 U/ml Epo
Method: Blood was collected with informed consent from the antecubital vein of healthy adult human volunteers into vacutainers containing 143 USP U/ml sodium heparin. Low density mononuclear cells (LDMNC) were isolated by centrifugation over a density gradient as described in Example 1. Plastic adherent cells were removed by an overnight incubation in a tissue culture flask and the non-adherent cells were placed directly in a CFA. Conditions for the CFA are similar to those described in Examples 1-4.
The mean fold increase in adult blood BFU-E, CFU-E and CFU-GM progenitor number produced by 1.0 mg/ml HAo (15.6 μM) or HEMOLINK™ (15.6 μM), 100 μM hemin or 250 μM FeCl3 is shown in FIG. 9 (n=3). Cultures were maintained at ambient oxygen tensions (˜20% O2) for 14 days. The fold increase in colonies is expressed relative to control cells treated only with the respective vehicles. […] The magnitude of this increase was greater for adult than cord blood LDMNC.
The mean fold increase in adult blood BFU-E, CFU-E and CFU-GM progenitor number at 5% O2 is shown in FIG. 10 with the same additives. Results are expressed relative to control cells treated only with the respective vehicles and cultured at ambient oxygen tensions (˜20% O2). Reduced oxygen tensions (5% O)2 enhanced the growth of BFU-E which was further increased by the addition of HAo, HEMOLINK™, hemin or FeCl3. All agents stimulated a similar increase in BFU-E number (˜9-11-fold) at 5% O2 compared to untreated control cells at ambient oxygen tensions.
Mean fold increase in adult blood BFU-E, CFU-E and CFU-GM progenitor number in the presence of reduced Epo (0.2 U/ml) (n=3) at 20% O2 is shown in FIG. 11 with and without (no addition) the additives used in FIG. 9. Results are expressed relative to control cells at 2 U/ml Epo treated only with the respective vehicles (solid line at fold expansion=1.0). […] As with cord blood, CFU-GM numbers were unaffected by reductions in Epo. The addition of HAo or HEMOLINK™ to CFAs containing 0.2 U/ml Epo stimulated ˜4.5- and ˜3.5-fold increases in BFU-E and CFU-E, respectively, compared to untreated controls (no addition), restoring the progenitor number to that obtained at 2 U/ml Epo. Hemin stimulated the greatest increase in BFU-E and CFU-E (˜9- and ˜6-fold, respectively) at 0.2 U/ml Epo versus the untreated controls (no addition). FeCl3 stimulated only a ˜2-fold increase in erythroid progenitor number at 0.2 U/ml Epo.
Mean fold increase in adult blood BFU-E, CFU-E and CFU-GM progenitor number at 5% O2 in the presence of reduced Epo (0.2 U/ml) (n=3) is shown in FIG. 12 with and without the additives used in FIG. 9. Results are expressed relative to control cells at 2 U/ml Epo treated only with the respective vehicles and cultured at ambient oxygen tensions (˜20% O2) for 14 days (solid line at fold expansion=1.0). The number of erythroid progenitors stimulated at 5% O2 and 0.2 U/ml Epo was similar to that obtained with 2.0 U/ml Epo maintained at ambient oxygen tensions (no addition).

Molecule | fold increase in CFU-E, adult blood, 0.2 U/ml Epo [fold] | increase in number of CFU-E progenitors, adult blood, ambient O2 (in words)
HAo: adult human hemoglobin obtained from red blood cells and purified by displacement chromatography; uncross linked product | ~3.5 | slight increases
HEMOLINK™: chemically crosslinked hemoglobin prepared by treating human hemoglobin with a polyaldehyde (O-raffinose) | ~3.5 | slight increases
C=CC1=C(C)C2=Cc3c(C=C)c(C)c4[n]3[Fe-2]35([Cl])[n]6c(c(C)c(CCC(=O)O)c6=CC6=[N+]3C(=C4)C(C)=C6CCC(=O)O)=CC1=[N+]25 [hemin] | ~6 | slight increases
